# Data published in PMC11394972 (International Journal of Molecular Sciences, 2024).
# System: MazF-mt3(Δ16–22)
# Type: biochemical, Mycobacterium tuberculosis
# Conditions: FAM-labeled 13-nt RNA substrate; Figure 4B, Figure S9
substance,measurement,value
"MazE-mt3 α3–α4: peptide corresponding to the last two helices (α3-α4, Leu46-Trp82) of MazE-mt3; cocrystallized with MazF-mt3 (PDB 8ZWS) (LTGQIDRALESIHGTDEAEALAVANAYRVLETMDDEW)",inhibitory effect against the loop-truncated MazF-mt3 enzyme compared with the full-length antitoxin,strong inhibitory effect comparable to that of the full-length MazE-mt3
